Source: patent US4570000A, “Nitrogen heterocycles” (Imperial Chemical Industries, PLC, priority 1981, dated 1986)

What was measured:
[1] = test system: conscious mice; experiment: intravenous toxicity in conscious mice; assay type: in vivo; details: four conscious mice, one hundred times the dose giving approximate 50% inhibition of gastric secretion in the anaesthetised rat
Method: (§1) No overt toxicity or side effects were noted during the rat or dog tests. The compound 1-[3-(4-[2-(2,2,2-trifluoroethyl)guanidino]pyrimid-2-yloxy)propyl]imidazole was administered intravenously to groups of two anaesthetised rats and four conscious mice at doses which were respectively ten times and one hundred times the dose, in mg./kg., which produced an approximate 50% inhibition of gastric secretion in the anaesthetised rat.

[2] = test system: anaesthetised rats; experiment: intravenous toxicity in anaesthetised rats; assay type: in vivo; details: two anaesthetised rats, ten times the dose giving approximate 50% inhibition of gastric secretion in the anaesthetised rat
Method: as §1

NC(=NCC(F)(F)F)Nc1ccnc(OCCCn2ccnc2)n1 [Example 6, 1-[3-(4-[2-(2,2,2-trifluoroethyl)guanidino]pyrimid-2-yloxy)propyl]imidazole]
toxic symptoms [1]: No toxic symptoms
toxic symptoms [2]: No toxic symptoms
